Literature values, collected in patent US12350296B2, “Liquid propolis extract, its formulation and use thereof” (Apiotix Technologies D.O.O., priority 2019, dated 2025).
Where two headings read alike, the source gives them in different places.

Test system: subclinical mastitis
Conditions: for healing (cure) of cases: subclinical mastitis caused by S. uberis

SMILES	bacteriological cure (daily i.mam. application during 8 days) [%]	bacteriological cure (i.mam. application, after 5 days) [%]	healing (cure) of cases (therapy for 5 days) [%]	healing (cure) of cases (therapy for 8 days) [%]	healing (cure) of cases (two-day therapy) [%]
CO/N=C(\C(=O)N[C@@H]1C(=O)N2C(C(=O)O)=C(CSC(=O)c3ccco3)CS[C@H]12)c1csc(N)n1 [ceftiofur]	66	54			
CC[C@@H]1CCN[C@H](C(=O)N[C@@H]([C@H]2O[C@H](SC)[C@H](O)[C@@H](O)[C@H]2O)[C@H](C)Cl)C1 [pirlimycin]			68.8	80	58.1
